Reference: patent publication US4446133A, “1-Phenyl-4-carbamoyl piperazine compounds, process for preparation thereof and utilizations thereof” (Misuitoatsu Chemicals, Inc., priority 1980, dated 1984)

Columns and labels:
adjuvant arthritis = test: Test 2: Adjuvant Arthritis Test; format: in vivo, SD male rats; conditions: 5 mg/kg subcutaneous, 9 times, left hind leg, * P<0.05, ** P<0.01; for Swelling Ratio (average value ± standard variation), 15 days: control 84.4 ± 9.0; for Swelling Ratio (average value ± standard variation), 18 days: control 103.2 ± 9.7; for Swelling Ratio (average value ± standard variation), 21 days: control 107.5 ± 13.3
Sarcoma 180 [1] = test: Test 4: Test of Antitumor Effect to Sarcoma 180 by Oral Administration; format: in vivo, ICR female mice; conditions: for D: average diameter of tumor, 2 weeks / D: average diameter of tumor, 4 weeks / D: average diameter of tumor, 6 weeks / D: average diameter of tumor, 8 weeks / D: average diameter of tumor, 10 weeks: 100 mg/kg oral once a day, 10 days; for D: average diameter of tumor, 2 weeks: control 10.6; for D: average diameter of tumor, 4 weeks: control 15.2; for D: average diameter of tumor, 6 weeks: control 22.4; for D: average diameter of tumor, 8 weeks: control 31.5; for D: average diameter of tumor, 10 weeks: control 37.6; for N: number of living mice, 0 weeks / N: number of living mice, 2 weeks / N: number of living mice, 4 weeks / N: number of living mice, 6 weeks / N: number of living mice, 8 weeks / N: number of living mice, 10 weeks: 100 mg/kg oral, of 6 mice; for N: number of living mice, 0 weeks / N: number of living mice, 2 weeks / N: number of living mice, 4 weeks / N: number of living mice, 6 weeks: control 6; for N: number of living mice, 8 weeks: control 5; for N: number of living mice, 10 weeks: control 1
Experimental: To the control group, a physiological saline solution was similarly administered. The dose of the compound was 100 mg per Kg of the body weight. The diameter D (mm) of the tumor was measured, and the average value and the number N of the living mice were determined to obtain results shown in Table 4.

Sarcoma 180 [2] = test: Test 5: Test of Antitumor Effect to Sarcoma 180 by Subcutaneous Administration; format: in vivo, ICR female mice; conditions: 20 mg/kg subcutaneous; for D: average diameter of tumor, 2 weeks: control 10.8; for D: average diameter of tumor, 4 weeks: control 16.6; for D: average diameter of tumor, 6 weeks: control 20.3; for D: average diameter of tumor, 8 weeks: control 31.3; for D: average diameter of tumor, 10 weeks: control 40.5; for N: number of living mice, 0 weeks / N: number of living mice, 2 weeks / N: number of living mice, 4 weeks / N: number of living mice, 6 weeks / N: number of living mice, 8 weeks / N: number of living mice, 10 weeks: of 6 mice; for N: number of living mice, 0 weeks / N: number of living mice, 2 weeks / N: number of living mice, 4 weeks / N: number of living mice, 6 weeks: control 6; for N: number of living mice, 8 weeks: control 4; for N: number of living mice, 10 weeks: control 1
Experimental: To the control group, a physiological saline solution was similarly administered. […] The diameter D (mm) of the tumor was measured, and the average value and the number N of the living mice were determined to obtain results shown in Table 4.

SMILES: CCN(CC)C(=O)N1CCN(c2ccccc2)CC1 [drawing 17]
- Swelling Ratio (average value ± standard variation), 15 days (adjuvant arthritis): 47.0 ± 8.0%
- Swelling Ratio (average value ± standard variation), 18 days (adjuvant arthritis): 52.4 ± 9.2%
- Swelling Ratio (average value ± standard variation), 21 days (adjuvant arthritis): 59.8 ± 12.1%

SMILES: CCN(CC)C(=O)N1CCN(c2ccc(Cl)cc2)CC1 [drawing 18]
- Swelling Ratio (average value ± standard variation), 15 days (adjuvant arthritis): 57.9 ± 11.1%
- Swelling Ratio (average value ± standard variation), 18 days (adjuvant arthritis): 55.7 ± 9.7%
- Swelling Ratio (average value ± standard variation), 21 days (adjuvant arthritis): 62.8 ± 10.9%

SMILES: CCN(CC)C(=O)N1CCN(c2ccccc2)CC1 [drawing 29]
- D: average diameter of tumor, 2 weeks (Sarcoma 180 [1]): 7.8 mm
- D: average diameter of tumor, 4 weeks (Sarcoma 180 [1]): 6.6 mm
- D: average diameter of tumor, 6 weeks (Sarcoma 180 [1]): 3.7 mm
- D: average diameter of tumor, 8 weeks (Sarcoma 180 [1]): 0.9 mm
- D: average diameter of tumor, 10 weeks (Sarcoma 180 [1]): 0 mm
- N: number of living mice, 0 weeks (Sarcoma 180 [1]): 6
- N: number of living mice, 2 weeks (Sarcoma 180 [1]): 6
- N: number of living mice, 4 weeks (Sarcoma 180 [1]): 6
- N: number of living mice, 6 weeks (Sarcoma 180 [1]): 6
- N: number of living mice, 8 weeks (Sarcoma 180 [1]): 6
- N: number of living mice, 10 weeks (Sarcoma 180 [1]): 6

SMILES: CCN(CC)C(=O)N1CCN(c2ccc(Cl)cc2)CC1 [drawing 30]
- D: average diameter of tumor, 2 weeks (Sarcoma 180 [1]): 7.1 mm
- D: average diameter of tumor, 4 weeks (Sarcoma 180 [1]): 5.8 mm
- D: average diameter of tumor, 6 weeks (Sarcoma 180 [1]): 3.0 mm
- D: average diameter of tumor, 8 weeks (Sarcoma 180 [1]): 0 mm
- D: average diameter of tumor, 10 weeks (Sarcoma 180 [1]): 0 mm
- N: number of living mice, 0 weeks (Sarcoma 180 [1]): 6
- N: number of living mice, 2 weeks (Sarcoma 180 [1]): 6
- N: number of living mice, 4 weeks (Sarcoma 180 [1]): 6
- N: number of living mice, 6 weeks (Sarcoma 180 [1]): 6
- N: number of living mice, 8 weeks (Sarcoma 180 [1]): 6
- N: number of living mice, 10 weeks (Sarcoma 180 [1]): 6

SMILES: CCN(CC)C(=O)N1CCN(c2ccc(OC)cc2)CC1 [drawing 31]
- D: average diameter of tumor, 2 weeks (Sarcoma 180 [1]): 8.1 mm
- D: average diameter of tumor, 4 weeks (Sarcoma 180 [1]): 4.6 mm
- D: average diameter of tumor, 6 weeks (Sarcoma 180 [1]): 5.0 mm
- D: average diameter of tumor, 8 weeks (Sarcoma 180 [1]): 2.2 mm
- D: average diameter of tumor, 10 weeks (Sarcoma 180 [1]): 0.6 mm
- N: number of living mice, 0 weeks (Sarcoma 180 [1]): 6
- N: number of living mice, 2 weeks (Sarcoma 180 [1]): 6
- N: number of living mice, 4 weeks (Sarcoma 180 [1]): 6
- N: number of living mice, 6 weeks (Sarcoma 180 [1]): 6
- N: number of living mice, 8 weeks (Sarcoma 180 [1]): 6
- N: number of living mice, 10 weeks (Sarcoma 180 [1]): 6

SMILES: CCOC(=O)c1ccc(N2CCN(C(=O)N(CC)CC)CC2)cc1 [drawing 32]
- D: average diameter of tumor, 2 weeks (Sarcoma 180 [1]): 9.2 mm
- D: average diameter of tumor, 4 weeks (Sarcoma 180 [1]): 7.4 mm
- D: average diameter of tumor, 6 weeks (Sarcoma 180 [1]): 4.8 mm
- D: average diameter of tumor, 8 weeks (Sarcoma 180 [1]): 3.2 mm
- D: average diameter of tumor, 10 weeks (Sarcoma 180 [1]): 0 mm
- N: number of living mice, 0 weeks (Sarcoma 180 [1]): 6
- N: number of living mice, 2 weeks (Sarcoma 180 [1]): 6
- N: number of living mice, 4 weeks (Sarcoma 180 [1]): 6
- N: number of living mice, 6 weeks (Sarcoma 180 [1]): 6
- N: number of living mice, 8 weeks (Sarcoma 180 [1]): 6
- N: number of living mice, 10 weeks (Sarcoma 180 [1]): 6

SMILES: CCN(CC)C(=O)N1CCN(c2ccc(C(=O)O)cc2)CC1 [drawing 33]
- D: average diameter of tumor, 2 weeks (Sarcoma 180 [1]): 6.8 mm
- D: average diameter of tumor, 4 weeks (Sarcoma 180 [1]): 3.5 mm
- D: average diameter of tumor, 6 weeks (Sarcoma 180 [1]): 4.4 mm
- D: average diameter of tumor, 8 weeks (Sarcoma 180 [1]): 2.2 mm
- D: average diameter of tumor, 10 weeks (Sarcoma 180 [1]): 0 mm
- N: number of living mice, 0 weeks (Sarcoma 180 [1]): 6
- N: number of living mice, 2 weeks (Sarcoma 180 [1]): 6
- N: number of living mice, 4 weeks (Sarcoma 180 [1]): 6
- N: number of living mice, 6 weeks (Sarcoma 180 [1]): 6
- N: number of living mice, 8 weeks (Sarcoma 180 [1]): 6
- N: number of living mice, 10 weeks (Sarcoma 180 [1]): 6

SMILES: CCN(CC)C(=O)N1CCN(c2ccc(C(C)=O)cc2)CC1 [drawing 34]
- D: average diameter of tumor, 2 weeks (Sarcoma 180 [1]): 8.4 mm
- D: average diameter of tumor, 4 weeks (Sarcoma 180 [1]): 4.7 mm
- D: average diameter of tumor, 6 weeks (Sarcoma 180 [1]): 5.1 mm
- D: average diameter of tumor, 8 weeks (Sarcoma 180 [1]): 6.6 mm
- D: average diameter of tumor, 10 weeks (Sarcoma 180 [1]): 0 mm
- N: number of living mice, 0 weeks (Sarcoma 180 [1]): 6
- N: number of living mice, 2 weeks (Sarcoma 180 [1]): 6
- N: number of living mice, 4 weeks (Sarcoma 180 [1]): 6
- N: number of living mice, 6 weeks (Sarcoma 180 [1]): 6
- N: number of living mice, 8 weeks (Sarcoma 180 [1]): 6
- N: number of living mice, 10 weeks (Sarcoma 180 [1]): 6

SMILES: CCN(CC)C(=O)N1CCN(c2ccccc2)CC1 [drawing 35]
- D: average diameter of tumor, 2 weeks (Sarcoma 180 [2]): 2.9 mm
- D: average diameter of tumor, 4 weeks (Sarcoma 180 [2]): 4.1 mm
- D: average diameter of tumor, 6 weeks (Sarcoma 180 [2]): 4.8 mm
- D: average diameter of tumor, 8 weeks (Sarcoma 180 [2]): 1.0 mm
- D: average diameter of tumor, 10 weeks (Sarcoma 180 [2]): 0 mm
- N: number of living mice, 0 weeks (Sarcoma 180 [2]): 6
- N: number of living mice, 2 weeks (Sarcoma 180 [2]): 6
- N: number of living mice, 4 weeks (Sarcoma 180 [2]): 6
- N: number of living mice, 6 weeks (Sarcoma 180 [2]): 6
- N: number of living mice, 8 weeks (Sarcoma 180 [2]): 6
- N: number of living mice, 10 weeks (Sarcoma 180 [2]): 6

SMILES: CCN(CC)C(=O)N1CCN(c2ccc(Cl)cc2)CC1 [drawing 36]
- D: average diameter of tumor, 2 weeks (Sarcoma 180 [2]): 2.3 mm
- D: average diameter of tumor, 4 weeks (Sarcoma 180 [2]): 2.1 mm
- D: average diameter of tumor, 6 weeks (Sarcoma 180 [2]): 3.8 mm
- D: average diameter of tumor, 8 weeks (Sarcoma 180 [2]): 0 mm
- D: average diameter of tumor, 10 weeks (Sarcoma 180 [2]): 0 mm
- N: number of living mice, 0 weeks (Sarcoma 180 [2]): 6
- N: number of living mice, 2 weeks (Sarcoma 180 [2]): 6
- N: number of living mice, 4 weeks (Sarcoma 180 [2]): 6
- N: number of living mice, 6 weeks (Sarcoma 180 [2]): 6
- N: number of living mice, 8 weeks (Sarcoma 180 [2]): 6
- N: number of living mice, 10 weeks (Sarcoma 180 [2]): 6

SMILES: CCN(CC)C(=O)N1CCN(c2ccc(OC)cc2)CC1 [drawing 37]
- D: average diameter of tumor, 2 weeks (Sarcoma 180 [2]): 3.0 mm
- D: average diameter of tumor, 4 weeks (Sarcoma 180 [2]): 1.0 mm
- D: average diameter of tumor, 6 weeks (Sarcoma 180 [2]): 2.2 mm
- D: average diameter of tumor, 8 weeks (Sarcoma 180 [2]): 5.3 mm
- D: average diameter of tumor, 10 weeks (Sarcoma 180 [2]): 4.0 mm
- N: number of living mice, 0 weeks (Sarcoma 180 [2]): 6
- N: number of living mice, 2 weeks (Sarcoma 180 [2]): 6
- N: number of living mice, 4 weeks (Sarcoma 180 [2]): 6
- N: number of living mice, 6 weeks (Sarcoma 180 [2]): 6
- N: number of living mice, 8 weeks (Sarcoma 180 [2]): 6
- N: number of living mice, 10 weeks (Sarcoma 180 [2]): 6

SMILES: CCOC(=O)c1ccc(N2CCN(C(=O)N(CC)CC)CC2)cc1 [drawing 38]
- D: average diameter of tumor, 2 weeks (Sarcoma 180 [2]): 3.2 mm
- D: average diameter of tumor, 4 weeks (Sarcoma 180 [2]): 3.4 mm
- D: average diameter of tumor, 6 weeks (Sarcoma 180 [2]): 3.8 mm
- D: average diameter of tumor, 8 weeks (Sarcoma 180 [2]): 2.5 mm
- D: average diameter of tumor, 10 weeks (Sarcoma 180 [2]): 0.8 mm
- N: number of living mice, 0 weeks (Sarcoma 180 [2]): 6
- N: number of living mice, 2 weeks (Sarcoma 180 [2]): 6
- N: number of living mice, 4 weeks (Sarcoma 180 [2]): 6
- N: number of living mice, 6 weeks (Sarcoma 180 [2]): 6
- N: number of living mice, 8 weeks (Sarcoma 180 [2]): 6
- N: number of living mice, 10 weeks (Sarcoma 180 [2]): 6

SMILES: CCN(CC)C(=O)N1CCN(c2ccc(C(=O)O)cc2)CC1 [drawing 39]
- D: average diameter of tumor, 2 weeks (Sarcoma 180 [2]): 2.1 mm
- D: average diameter of tumor, 4 weeks (Sarcoma 180 [2]): 4.4 mm
- D: average diameter of tumor, 6 weeks (Sarcoma 180 [2]): 4.8 mm
- D: average diameter of tumor, 8 weeks (Sarcoma 180 [2]): 3.9 mm
- D: average diameter of tumor, 10 weeks (Sarcoma 180 [2]): 0 mm
- N: number of living mice, 0 weeks (Sarcoma 180 [2]): 6
- N: number of living mice, 2 weeks (Sarcoma 180 [2]): 6
- N: number of living mice, 4 weeks (Sarcoma 180 [2]): 6
- N: number of living mice, 6 weeks (Sarcoma 180 [2]): 6
- N: number of living mice, 8 weeks (Sarcoma 180 [2]): 6
- N: number of living mice, 10 weeks (Sarcoma 180 [2]): 6

SMILES: CCN(CC)C(=O)N1CCN(c2ccc(C(C)=O)cc2)CC1 [drawing 40]
- D: average diameter of tumor, 2 weeks (Sarcoma 180 [2]): 4.1 mm
- D: average diameter of tumor, 4 weeks (Sarcoma 180 [2]): 7.7 mm
- D: average diameter of tumor, 6 weeks (Sarcoma 180 [2]): 8.5 mm
- D: average diameter of tumor, 8 weeks (Sarcoma 180 [2]): 4.3 mm
- D: average diameter of tumor, 10 weeks (Sarcoma 180 [2]): 0 mm
- N: number of living mice, 0 weeks (Sarcoma 180 [2]): 6
- N: number of living mice, 2 weeks (Sarcoma 180 [2]): 6
- N: number of living mice, 4 weeks (Sarcoma 180 [2]): 6
- N: number of living mice, 6 weeks (Sarcoma 180 [2]): 6
- N: number of living mice, 8 weeks (Sarcoma 180 [2]): 6
- N: number of living mice, 10 weeks (Sarcoma 180 [2]): 6
